Laboratory results published in ChEMBL document CHEMBL1697731, “Cheminformatics analysis of assertions mined from literature that describe drug-induced liver injury in different species” (Chem Res Toxicol, 2010).

Legend:
Hepatotoxicity [1] = experiment: Literature-mined compound from Fourches et al multi-species drug-induced liver injury (DILI) dataset, effect in humans; details: human
Hepatotoxicity [2] = experiment: Literature-mined compound from Fourches et al multi-species drug-induced liver injury (DILI) dataset, effect in rodents; details: rodentia
Hepatotoxicity [3] = experiment: Literature-mined compound from Fourches et al multi-species drug-induced liver injury (DILI) dataset, effect in non-rodents

Compound	Hepatotoxicity (Hepatotoxicity [1])	Hepatotoxicity (Hepatotoxicity [2])	Hepatotoxicity (Hepatotoxicity [3])	Hepatotoxicity (Hepatotoxicity [1]; Liver)	Hepatotoxicity (Hepatotoxicity [2]; Liver)	Hepatotoxicity (Hepatotoxicity [3]; Liver)
[H]/N=C(\N/C(=N/[H])Nc1ccc(Cl)cc1)NC(C)C [PROGUANIL]	drug-induced liver injury reported	no drug-induced liver injury reported	no drug-induced liver injury reported	–	–	–
CNCC(O)c1ccc(O)cc1 (stereo unspecified) [OXEDRINE]	no drug-induced liver injury reported	drug-induced liver injury reported	no drug-induced liver injury reported	–	–	–
CC1CS(=O)(=O)CCN1/N=C/c1ccc([N+](=O)[O-])o1 (stereo unspecified) [NIFURTIMOX]	–	–	–	no drug-induced liver injury reported	drug-induced liver injury reported	no drug-induced liver injury reported
CCN1CC(CCN2CCOCC2)C(c2ccccc2)(c2ccccc2)C1=O.Cl (stereo unspecified)	drug-induced liver injury reported	no drug-induced liver injury reported	no drug-induced liver injury reported	–	–	–
NC(=O)c1cccnc1 [NIACINAMIDE]	drug-induced liver injury reported	drug-induced liver injury reported	no drug-induced liver injury reported	–	–	–
CC#CCC(C)[C@H](O)/C=C/[C@@H]1[C@H]2c3cccc(CCCC(=O)O)c3O[C@H]2C[C@H]1O (stereo partly specified) [BERAPROST]	no drug-induced liver injury reported	drug-induced liver injury reported	no drug-induced liver injury reported	–	–	–
NC12CC3CC(CC(C3)C1)C2 [AMANTADINE]	no drug-induced liver injury reported	drug-induced liver injury reported	no drug-induced liver injury reported	–	–	–
C[C@@H]1O[C@@H]1P(=O)(O)O [FOSFOMYCIN]	drug-induced liver injury reported	no drug-induced liver injury reported	no drug-induced liver injury reported	–	–	–
NCC(CC(=O)O)c1ccc(Cl)cc1 (stereo unspecified) [BACLOFEN]	drug-induced liver injury reported	no drug-induced liver injury reported	no drug-induced liver injury reported	–	–	–
CCCCC(=O)O[C@H]1CC[C@H]2[C@@H]3CCc4cc(O)ccc4[C@H]3CC[C@]12C [ESTRADIOL VALERATE]	no drug-induced liver injury reported	drug-induced liver injury reported	no drug-induced liver injury reported	–	–	–
CCCCCCCCCCCCCCCCOP(=O)([O-])OCC[N+](C)(C)C [MILTEFOSINE]	drug-induced liver injury reported	no drug-induced liver injury reported	no drug-induced liver injury reported	–	–	–
CCN(CC)C(=O)c1cccc(C)c1 [DIETHYLTOLUAMIDE]	no drug-induced liver injury reported	drug-induced liver injury reported	no drug-induced liver injury reported	–	–	–
NCCCC[C@H](NC(=O)[C@@H]1CCCN1C(=O)[C@@H]1CSSC[C@H](NC(=O)CNC(=O)CNC(=O)CN)C(=O)N[C@@H](Cc2ccc(O)cc2)C(=O)N[C@@H](Cc2ccccc2)C(=O)N[C@@H](CCC(N)=O)C(=O)N[C@@H](CC(N)=O)C(=O)N1)C(=O)NCC(N)=O [TERLIPRESSIN]	drug-induced liver injury reported	no drug-induced liver injury reported	drug-induced liver injury reported	–	–	–
CC(=O)[C@H]1CC[C@H]2[C@@H]3CCC4=CC(=O)CC[C@]4(C)[C@H]3CC[C@]12C (stereo in doubt; form 1) [PROGESTERONE]	drug-induced liver injury reported	drug-induced liver injury reported	drug-induced liver injury reported	–	–	–
O=C1Nc2ccc(Cl)cc2[C@@](C#CC2CC2)(C(F)(F)F)O1 [EFAVIRENZ]	drug-induced liver injury reported	drug-induced liver injury reported	no drug-induced liver injury reported	–	–	–
CC(=O)N(O)CCCCCNC(=O)CCC(=O)N(O)CCCCCNC(=O)CCC(=O)N(O)CCCCCN [DEFEROXAMINE]	drug-induced liver injury reported	drug-induced liver injury reported	drug-induced liver injury reported	–	–	–
CCOC(=O)/C=C(C)/C=C/C=C(C)/C=C/c1c(C)cc(OC)c(C)c1C [ETRETINATE]	drug-induced liver injury reported	no drug-induced liver injury reported	no drug-induced liver injury reported	–	–	–
C=CC[C@@H]1/C=C(\C)C[C@H](C)C[C@H](OC)[C@H]2O[C@@](O)(C(=O)C(=O)N3CCCC[C@H]3C(=O)O[C@H](/C(C)=C/[C@@H]3CC[C@@H](O)[C@H](OC)C3)[C@H](C)[C@@H](O)CC1=O)[C@H](C)C[C@@H]2OC [TACROLIMUS ANHYDROUS]	drug-induced liver injury reported	drug-induced liver injury reported	no drug-induced liver injury reported	–	–	–
C[C@]12CCC3=C4CCC(=O)C=C4CC[C@H]3[C@@H]1CC[C@@]2(O)CC#N [DIENOGEST]	no drug-induced liver injury reported	drug-induced liver injury reported	no drug-induced liver injury reported	–	–	–

Compound	Hepatotoxicity (Hepatotoxicity [1])	Hepatotoxicity (Hepatotoxicity [2])	Hepatotoxicity (Hepatotoxicity [3])	Hepatotoxicity (Hepatotoxicity [1]; Liver)	Hepatotoxicity (Hepatotoxicity [2]; Liver)	Hepatotoxicity (Hepatotoxicity [3]; Liver)
C[C@H](CCC(=O)O)[C@H]1CC[C@H]2[C@@H]3[C@@H](O)C[C@@H]4C[C@H](O)CC[C@]4(C)[C@H]3CC[C@]12C [URSODIOL]	drug-induced liver injury reported	drug-induced liver injury reported	drug-induced liver injury reported	–	–	–
CC(=O)Oc1ccccc1C(=O)O [ASPIRIN]	drug-induced liver injury reported	drug-induced liver injury reported	drug-induced liver injury reported	–	–	–
CC(=O)Oc1c(C)c(C)c2c(c1C)CCC(C)(CCC[C@H](C)CCC[C@H](C)CCCC(C)C)O2 (stereo partly specified) [TOCOPHEROL ACETATE]	no drug-induced liver injury reported	drug-induced liver injury reported	no drug-induced liver injury reported	–	–	–
CCN1CCN(C(=O)N[C@@H](C(=O)N[C@@H]2C(=O)N3[C@@H]2SC(C)(C)[C@@H]3C(=O)O)c2ccccc2)C(=O)C1=O [PIPERACILLIN]	no drug-induced liver injury reported	drug-induced liver injury reported	drug-induced liver injury reported	–	–	–
O=C(OCC(O)CO)c1ccccc1Nc1ccnc2cc(Cl)ccc12 (stereo unspecified) [GLAFENINE]	–	–	–	drug-induced liver injury reported	no drug-induced liver injury reported	no drug-induced liver injury reported
Cc1cn([C@@H]2O[C@H](CO)[C@@H](O)[C@@H]2F)c(=O)[nH]c1=O [5-METHYL-2'-FLUOROARAURACIL]	drug-induced liver injury reported	no drug-induced liver injury reported	no drug-induced liver injury reported	–	–	–
OXALIPLATIN	drug-induced liver injury reported	no drug-induced liver injury reported	no drug-induced liver injury reported	–	–	–
PORFIMER SODIUM	no drug-induced liver injury reported	drug-induced liver injury reported	no drug-induced liver injury reported	–	–	–
CC(C)(Oc1ccc(C2CC2(Cl)Cl)cc1)C(=O)O (stereo unspecified) [CIPROFIBRATE]	drug-induced liver injury reported	drug-induced liver injury reported	drug-induced liver injury reported	–	–	–
C[C@@H](c1ncncc1F)[C@](O)(Cn1cncn1)c1ccc(F)cc1F [VORICONAZOLE]	drug-induced liver injury reported	no drug-induced liver injury reported	no drug-induced liver injury reported	–	–	–
O=C1C(CC[S+]([O-])c2ccccc2)C(=O)N(c2ccccc2)N1c1ccccc1 (stereo unspecified) [SULFINPYRAZONE]	drug-induced liver injury reported	no drug-induced liver injury reported	no drug-induced liver injury reported	–	–	–
CS(=O)(=O)c1ccc([C@@H](O)[C@@H](CO)NC(=O)C(Cl)Cl)cc1 [THIAMPHENICOL]	drug-induced liver injury reported	drug-induced liver injury reported	no drug-induced liver injury reported	–	–	–
Cc1ccc(-c2nc3ccc(C)cn3c2CC(=O)N(C)C)cc1 [ZOLPIDEM]	drug-induced liver injury reported	no drug-induced liver injury reported	no drug-induced liver injury reported	–	–	–
CCOc1ccc2nc(S(N)(=O)=O)sc2c1 [ETHOXZOLAMIDE]	no drug-induced liver injury reported	drug-induced liver injury reported	no drug-induced liver injury reported	–	–	–
COC(=O)C[C@](O)(CCCC(C)(C)O)C(=O)O[C@@H]1C(OC)=C[C@]23CCCN2CCc2cc4c(cc2[C@H]13)OCO4 [OMACETAXINE MEPESUCCINATE]	drug-induced liver injury reported	no drug-induced liver injury reported	no drug-induced liver injury reported	–	–	–
C[C@]12CC[C@H](O)CC1=CC[C@@H]1[C@@H]2CC[C@]2(C)C(=O)CC[C@@H]12 [PRASTERONE]	drug-induced liver injury reported	drug-induced liver injury reported	no drug-induced liver injury reported	–	–	–
CN1CCC(=C2c3ccccc3C=Cc3ccccc32)CC1 [CYPROHEPTADINE]	drug-induced liver injury reported	drug-induced liver injury reported	no drug-induced liver injury reported	–	–	–
CC(=O)O.N=C(N)N/N=C/c1c(Cl)cccc1Cl [GUANABENZ ACETATE]	no drug-induced liver injury reported	drug-induced liver injury reported	no drug-induced liver injury reported	–	–	–
